Assays:
[1] = tested on: Phosphatidylinositol 4,5-bisphosphate 3-kinase catalytic subunit alpha isoform (Homo sapiens), P42336 [E545A]
[2] = biological target: Dual specificity tyrosine-phosphorylation-regulated kinase 1A (Homo sapiens) (UniProt Q13627)
[3] = biological target: Mitogen-activated protein kinase kinase kinase 19 (Homo sapiens) (UniProt Q56UN5)
[4] = biological target: Membrane-associated tyrosine- and threonine-specific cdc2-inhibitory kinase (Homo sapiens) (UniProt Q99640)
[5] = biological target: Microtubule-associated serine/threonine-protein kinase 1 (Homo sapiens) (UniProt Q9Y2H9)
[6] = biological target: Serine/threonine-protein kinase PLK4 (Homo sapiens) (UniProt O00444)
[7] = tested on: Phosphatidylinositol 4,5-bisphosphate 3-kinase catalytic subunit alpha isoform (Homo sapiens), P42336 [E542K]
[8] = biological target: Tyrosine-protein kinase Fyn (Homo sapiens) (UniProt P06241)
[9] = biological target: Receptor-type tyrosine-protein kinase FLT3 (Homo sapiens) (UniProt P36888)
[10] = biological target: Cyclin-dependent kinase 3 (Homo sapiens) (UniProt Q00526)
[11] = biological target: Serine/threonine-protein kinase ULK2 (Homo sapiens) (UniProt Q8IYT8)
[12] = biological target: Casein kinase I isoform epsilon (Homo sapiens) (UniProt P49674)
[13] = tested on: Epidermal growth factor receptor (Homo sapiens), P00533 [G719S]
[14] = biological target: Cyclin-dependent kinase 13 (Homo sapiens) (UniProt Q14004)
[15] = biological target: SRSF protein kinase 2 (Homo sapiens) (UniProt P78362)
[16] = biological target: Dual serine/threonine and tyrosine protein kinase (Homo sapiens) (UniProt Q6XUX3)
[17] = biological target: Cyclin-dependent kinase 8 (Homo sapiens) (UniProt P49336)
[18] = biological target: Ephrin type-A receptor 6 (Homo sapiens) (UniProt Q9UF33)
[19] = tested on: Phosphatidylinositol 4,5-bisphosphate 3-kinase catalytic subunit alpha isoform (Homo sapiens), P42336 [H1047Y]
[20] = biological target: Tyrosine-protein kinase CSK (Homo sapiens) (UniProt P41240)
[21] = biological target: Serine/threonine-protein kinase MAK (Homo sapiens) (UniProt P20794)
[22] = biological target: Mitogen-activated protein kinase 11 (Homo sapiens) (UniProt Q15759)
[23] = biological target: Vascular endothelial growth factor receptor 3 (Homo sapiens) (UniProt P35916)
[24] = biological target: Serine/threonine-protein kinase haspin (Homo sapiens) (UniProt Q8TF76)
[25] = biological target: Ephrin type-A receptor 8 (Homo sapiens) (UniProt P29322)
[26] = biological target: Serine/threonine-protein kinase Nek5 (Homo sapiens) (UniProt Q6P3R8)
[27] = biological target: 5-hydroxytryptamine receptor 3A (Homo sapiens) (UniProt P46098); conditions: Compound concentration 10.0 uM
[28] = biological target: Focal adhesion kinase 1 (Homo sapiens, UniProt Q05397)
[29] = biological target: Fibroblast growth factor receptor 3 (Homo sapiens) (UniProt P22607)
[30] = biological target: Cyclin-dependent kinase 9 (Homo sapiens) (UniProt P50750)
[31] = biological target: Phosphatidylinositol 4-kinase beta (Homo sapiens) (UniProt Q9UBF8)
[32] = biological target: Ribosomal protein S6 kinase alpha-6 (Homo sapiens) (UniProt Q9UK32)
[33] = biological target: Dual specificity protein kinase CLK2 (Homo sapiens) (UniProt P49760)
[34] = biological target: Cytoplasmic tyrosine-protein kinase BMX (Homo sapiens) (UniProt P51813)
[35] = tested on: Phosphatidylinositol 4,5-bisphosphate 3-kinase catalytic subunit alpha isoform (Homo sapiens), P42336 [Q546K]
[36] = biological target: Serine/threonine-protein kinase Nek11 (Homo sapiens) (UniProt Q8NG66)
[37] = biological target: Serine/threonine-protein kinase Nek1 (Homo sapiens) (UniProt Q96PY6)
[38] = biological target: Calcium/calmodulin-dependent protein kinase type 1 (Homo sapiens) (UniProt Q14012)
[39] = biological target: Insulin receptor (Homo sapiens) (UniProt P06213)
[40] = biological target: Mitogen-activated protein kinase 14 (Homo sapiens) (UniProt Q16539)
[41] = biological target: Serine/threonine-protein kinase MRCK alpha (Homo sapiens) (UniProt Q5VT25)
[42] = tested on: Mast/stem cell growth factor receptor Kit (Homo sapiens), P10721 [A829P]
[43] = biological target: Serine/threonine-protein kinase STK11 (Homo sapiens) (UniProt Q15831)
[44] = tested on: Epidermal growth factor receptor (Homo sapiens), P00533 [T790M]
[45] = biological target: Tyrosine-protein kinase ITK/TSK (Homo sapiens) (UniProt Q08881)
[46] = Compound concentration 100.0 nM
[47] = Compound concentration 1000.0 nM

Vascular endothelial growth factor receptor 3 (Homo sapiens), sequence (P35916 whole entry): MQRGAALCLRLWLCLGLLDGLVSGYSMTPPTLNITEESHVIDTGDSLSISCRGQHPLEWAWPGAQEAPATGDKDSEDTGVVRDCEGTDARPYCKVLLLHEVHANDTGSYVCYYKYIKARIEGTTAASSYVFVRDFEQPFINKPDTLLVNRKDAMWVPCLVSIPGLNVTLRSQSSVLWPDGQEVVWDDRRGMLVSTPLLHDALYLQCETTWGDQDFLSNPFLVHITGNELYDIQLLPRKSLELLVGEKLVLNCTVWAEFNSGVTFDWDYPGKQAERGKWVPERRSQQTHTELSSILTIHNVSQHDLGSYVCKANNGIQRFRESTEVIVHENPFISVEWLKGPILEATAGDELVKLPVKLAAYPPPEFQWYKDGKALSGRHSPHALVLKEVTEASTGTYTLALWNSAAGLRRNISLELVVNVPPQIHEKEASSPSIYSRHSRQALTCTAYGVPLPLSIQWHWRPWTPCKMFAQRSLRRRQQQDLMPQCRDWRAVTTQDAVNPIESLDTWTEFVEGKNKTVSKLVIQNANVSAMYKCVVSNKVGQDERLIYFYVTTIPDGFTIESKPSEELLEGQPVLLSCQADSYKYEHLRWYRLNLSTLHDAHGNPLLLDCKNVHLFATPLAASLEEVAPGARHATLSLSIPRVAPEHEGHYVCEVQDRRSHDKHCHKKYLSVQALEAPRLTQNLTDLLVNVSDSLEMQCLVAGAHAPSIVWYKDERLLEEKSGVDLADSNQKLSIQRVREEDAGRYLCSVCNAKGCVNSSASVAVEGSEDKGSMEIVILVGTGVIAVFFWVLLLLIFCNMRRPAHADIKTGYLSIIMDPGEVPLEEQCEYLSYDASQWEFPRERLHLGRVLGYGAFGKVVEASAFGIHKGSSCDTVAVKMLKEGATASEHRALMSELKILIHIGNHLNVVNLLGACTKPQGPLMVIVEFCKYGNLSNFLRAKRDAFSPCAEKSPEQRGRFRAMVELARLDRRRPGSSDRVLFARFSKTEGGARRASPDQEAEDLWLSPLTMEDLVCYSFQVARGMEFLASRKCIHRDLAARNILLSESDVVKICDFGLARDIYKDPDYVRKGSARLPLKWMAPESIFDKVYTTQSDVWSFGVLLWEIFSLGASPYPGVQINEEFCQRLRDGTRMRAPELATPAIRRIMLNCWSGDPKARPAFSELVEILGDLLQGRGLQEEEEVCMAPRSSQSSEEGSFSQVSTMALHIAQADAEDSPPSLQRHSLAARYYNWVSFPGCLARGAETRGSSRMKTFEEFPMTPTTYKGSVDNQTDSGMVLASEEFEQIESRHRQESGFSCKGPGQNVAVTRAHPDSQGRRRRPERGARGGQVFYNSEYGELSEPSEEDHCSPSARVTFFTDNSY
Serine/threonine-protein kinase STK11 (Homo sapiens), sequence (Q15831 whole entry): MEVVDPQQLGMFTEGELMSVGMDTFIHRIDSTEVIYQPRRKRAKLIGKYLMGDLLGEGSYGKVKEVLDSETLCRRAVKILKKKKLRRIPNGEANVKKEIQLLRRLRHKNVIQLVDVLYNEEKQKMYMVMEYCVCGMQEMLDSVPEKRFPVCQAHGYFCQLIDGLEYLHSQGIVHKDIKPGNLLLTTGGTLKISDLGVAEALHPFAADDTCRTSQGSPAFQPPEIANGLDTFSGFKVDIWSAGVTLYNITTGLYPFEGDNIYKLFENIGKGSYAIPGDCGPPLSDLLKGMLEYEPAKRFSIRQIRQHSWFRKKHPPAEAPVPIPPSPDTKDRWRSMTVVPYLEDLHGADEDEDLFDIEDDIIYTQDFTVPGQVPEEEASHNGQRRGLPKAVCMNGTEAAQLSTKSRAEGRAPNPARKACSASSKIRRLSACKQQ
Tyrosine-protein kinase Fyn (Homo sapiens), sequence (P06241 2-537 limits assumed): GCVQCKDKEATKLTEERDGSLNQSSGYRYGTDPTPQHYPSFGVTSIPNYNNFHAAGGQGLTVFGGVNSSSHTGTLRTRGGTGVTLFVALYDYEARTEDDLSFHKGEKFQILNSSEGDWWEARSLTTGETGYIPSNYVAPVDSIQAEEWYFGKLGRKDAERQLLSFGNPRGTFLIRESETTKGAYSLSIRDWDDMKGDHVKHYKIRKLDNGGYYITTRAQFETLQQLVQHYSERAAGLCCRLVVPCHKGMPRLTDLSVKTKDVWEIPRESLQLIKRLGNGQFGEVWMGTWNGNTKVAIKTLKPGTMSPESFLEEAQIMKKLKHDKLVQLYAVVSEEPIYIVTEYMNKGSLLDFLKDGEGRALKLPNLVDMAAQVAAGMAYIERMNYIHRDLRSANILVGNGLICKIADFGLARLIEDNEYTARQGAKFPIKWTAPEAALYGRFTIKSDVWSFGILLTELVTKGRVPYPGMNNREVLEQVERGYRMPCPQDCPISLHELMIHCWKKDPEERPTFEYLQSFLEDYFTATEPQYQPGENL
Cytoplasmic tyrosine-protein kinase BMX (Homo sapiens), sequence (P51813 whole entry, canonical isoform): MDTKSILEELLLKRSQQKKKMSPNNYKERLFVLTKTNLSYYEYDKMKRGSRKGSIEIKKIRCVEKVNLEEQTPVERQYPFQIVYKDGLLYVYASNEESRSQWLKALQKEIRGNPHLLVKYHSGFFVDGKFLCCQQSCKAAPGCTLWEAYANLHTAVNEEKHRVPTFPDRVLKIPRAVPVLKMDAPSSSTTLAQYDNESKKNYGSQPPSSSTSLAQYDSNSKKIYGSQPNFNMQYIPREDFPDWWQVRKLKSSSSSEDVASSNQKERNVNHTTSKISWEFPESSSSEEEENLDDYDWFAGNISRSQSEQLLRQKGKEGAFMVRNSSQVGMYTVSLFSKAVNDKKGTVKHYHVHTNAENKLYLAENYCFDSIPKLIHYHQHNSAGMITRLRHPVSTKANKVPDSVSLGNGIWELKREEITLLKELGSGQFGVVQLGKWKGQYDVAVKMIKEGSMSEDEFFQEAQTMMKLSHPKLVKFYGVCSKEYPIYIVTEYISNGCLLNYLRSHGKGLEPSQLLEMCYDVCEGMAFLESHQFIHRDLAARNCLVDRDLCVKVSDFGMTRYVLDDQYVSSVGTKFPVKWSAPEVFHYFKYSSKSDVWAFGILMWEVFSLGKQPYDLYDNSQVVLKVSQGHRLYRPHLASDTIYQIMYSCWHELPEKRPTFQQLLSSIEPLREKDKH
Cyclin-dependent kinase 8 (Homo sapiens), sequence (P49336 whole entry): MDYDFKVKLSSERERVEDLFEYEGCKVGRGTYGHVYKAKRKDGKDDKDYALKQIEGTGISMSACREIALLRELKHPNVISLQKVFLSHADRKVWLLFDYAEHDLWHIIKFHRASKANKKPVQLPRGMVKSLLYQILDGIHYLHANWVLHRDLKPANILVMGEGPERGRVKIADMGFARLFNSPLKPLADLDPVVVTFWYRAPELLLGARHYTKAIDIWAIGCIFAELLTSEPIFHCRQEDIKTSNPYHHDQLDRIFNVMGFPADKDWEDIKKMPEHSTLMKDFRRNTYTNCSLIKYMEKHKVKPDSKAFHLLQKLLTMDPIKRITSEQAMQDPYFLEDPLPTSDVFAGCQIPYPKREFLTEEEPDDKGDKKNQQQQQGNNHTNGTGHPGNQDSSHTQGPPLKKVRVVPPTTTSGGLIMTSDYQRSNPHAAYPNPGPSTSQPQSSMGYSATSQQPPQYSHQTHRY
Mast/stem cell growth factor receptor Kit (Homo sapiens), P10721 [A829P], sequence (P10721 whole entry A829P): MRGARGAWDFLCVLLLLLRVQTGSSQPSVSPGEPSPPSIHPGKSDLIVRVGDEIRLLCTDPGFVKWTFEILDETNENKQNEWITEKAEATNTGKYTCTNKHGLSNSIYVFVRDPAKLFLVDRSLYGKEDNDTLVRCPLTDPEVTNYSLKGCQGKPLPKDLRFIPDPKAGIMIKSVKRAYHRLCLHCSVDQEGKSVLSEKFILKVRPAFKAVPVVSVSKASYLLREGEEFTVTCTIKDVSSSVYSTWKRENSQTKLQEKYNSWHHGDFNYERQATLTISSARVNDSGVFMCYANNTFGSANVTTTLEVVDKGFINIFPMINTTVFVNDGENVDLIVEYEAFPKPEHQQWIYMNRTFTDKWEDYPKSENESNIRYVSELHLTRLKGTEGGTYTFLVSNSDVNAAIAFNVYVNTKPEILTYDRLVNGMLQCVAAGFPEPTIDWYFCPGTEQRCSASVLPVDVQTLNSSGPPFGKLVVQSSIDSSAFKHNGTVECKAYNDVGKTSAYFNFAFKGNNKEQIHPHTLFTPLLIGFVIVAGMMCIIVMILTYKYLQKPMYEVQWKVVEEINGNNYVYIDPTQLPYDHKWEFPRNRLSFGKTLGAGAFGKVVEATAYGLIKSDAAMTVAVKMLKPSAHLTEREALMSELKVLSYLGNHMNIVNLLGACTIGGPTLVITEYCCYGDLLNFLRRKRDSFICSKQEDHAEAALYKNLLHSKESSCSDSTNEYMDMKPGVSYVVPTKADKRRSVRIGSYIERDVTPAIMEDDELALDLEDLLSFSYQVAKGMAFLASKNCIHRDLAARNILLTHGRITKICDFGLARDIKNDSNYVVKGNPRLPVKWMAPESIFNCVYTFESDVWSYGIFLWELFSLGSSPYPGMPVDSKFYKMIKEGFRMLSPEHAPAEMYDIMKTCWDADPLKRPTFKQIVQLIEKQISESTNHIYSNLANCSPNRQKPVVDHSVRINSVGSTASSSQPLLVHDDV
Dual specificity protein kinase CLK2 (Homo sapiens), sequence (P49760 whole entry, looked up): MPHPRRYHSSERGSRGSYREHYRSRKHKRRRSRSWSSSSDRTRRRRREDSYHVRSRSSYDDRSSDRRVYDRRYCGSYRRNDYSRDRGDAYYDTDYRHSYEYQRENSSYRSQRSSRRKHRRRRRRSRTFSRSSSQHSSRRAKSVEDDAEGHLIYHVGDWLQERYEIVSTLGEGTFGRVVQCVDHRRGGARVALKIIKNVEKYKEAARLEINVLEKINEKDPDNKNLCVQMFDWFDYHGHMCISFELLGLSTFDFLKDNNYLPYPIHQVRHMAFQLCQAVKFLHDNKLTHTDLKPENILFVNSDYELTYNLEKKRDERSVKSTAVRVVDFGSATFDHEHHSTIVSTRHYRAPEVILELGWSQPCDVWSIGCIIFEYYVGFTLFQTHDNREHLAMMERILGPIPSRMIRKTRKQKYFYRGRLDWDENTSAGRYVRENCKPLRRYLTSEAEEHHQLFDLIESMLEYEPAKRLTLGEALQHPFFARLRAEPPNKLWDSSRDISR

## CNC(=O)c1ccc(Nc2ncc(C(F)(F)F)c(NCc3nccnc3N(C)S(C)(=O)=O)n2)cc1 [DEFACTINIB]
[1]; [46]
  residual activity: 98%
[2]; [46]
  residual activity: 71%
[3]; [46]
  residual activity: 1.7%
[4]; [46]
  residual activity: 94%
[5]; [46]
  residual activity: 100%
[6]; [46]
  residual activity: 79%
[7]; [46]
  residual activity: 49%
[8]; [46]
  residual activity: 100%
[9]; [46]
  residual activity: 74%
[10]; [46]
  residual activity: 100%
[11]; [46]
  residual activity: 75%
[12]; [46]
  residual activity: 100%
[13]; [46]
  residual activity: 92%
[14]; [46]
  residual activity: 94%
[15]; [46]
  residual activity: 100%
[16]; [46]
  residual activity: 87%
[17]; [46]
  residual activity: 50%
[18]; [46]
  residual activity: 85%
[19]; [46]
  residual activity: 100%
[20]; [46]
  residual activity: 100%
[21]; [46]
  residual activity: 85%
[22]; [46]
  residual activity: 76%
[23]; [46]
  residual activity: 39%
[24]; [46]
  residual activity: 100%
[25]; [46]
  residual activity: 87%
[26]; [46]
  residual activity: 100%
[27]
  inhibition: 6.5%
[28]; [46]
  residual activity: 0.2%
[29]; [46]
  residual activity: 78%
[30]; [46]
  residual activity: 86%
[31]; [46]
  residual activity: 99%
[32]; [46]
  residual activity: 70%
[33]; [46]
  residual activity: 0%
[34]; [46]
  residual activity: 71%
[35]; [46]
  residual activity: 17%
[36]; [46]
  residual activity: 89%
[37]; [46]
  residual activity: 75%
[38]; [46]
  residual activity: 100%
[39]; [46]
  residual activity: 91%
[40]; [46]
  residual activity: 100%
[41]; [46]
  residual activity: 98%
[42]; [46]
  residual activity: 85%
[43]; [46]
  residual activity: 100%
[44]; [46]
  residual activity: 99%
[45]; [46]
  residual activity: 80%

## CN(c1ccnc(CNc2nc(Nc3ccc4c(c3)CC(=O)N4)ncc2C(F)(F)F)n1)S(C)(=O)=O [PF-00911705]
[1]; [47]
  residual activity: 90%
[2]; [47]
  residual activity: 19%
[3]; [47]
  residual activity: 0.4%
[4]; [47]
  residual activity: 100%
[5]; [47]
  residual activity: 69%
[6]; [47]
  residual activity: 50%
[7]; [47]
  residual activity: 100%
[8]; [47]
  residual activity: 59%
[9]; [47]
  residual activity: 64%
[10]; [47]
  residual activity: 90%
[11]; [47]
  residual activity: 5.4%
[12]; [47]
  residual activity: 100%
[13]; [47]
  residual activity: 89%
[14]; [47]
  residual activity: 82%
[15]; [47]
  residual activity: 40%
[16]; [47]
  residual activity: 53%
[17]; [47]
  residual activity: 97%
[18]; [47]
  residual activity: 85%
[19]; [47]
  residual activity: 85%
[20]; [47]
  residual activity: 74%
[21]; [47]
  residual activity: 100%
[22]; [47]
  residual activity: 85%
[23]; [47]
  residual activity: 92%
[24]; [47]
  residual activity: 76%
[25]; [47]
  residual activity: 100%
[26]; [47]
  residual activity: 63%
[27]
  inhibition: 1.24%
[28]; [47]
  residual activity: 4.9%
[29]; [47]
  residual activity: 71%
[30]; [47]
  residual activity: 84%
[31]; [47]
  residual activity: 76%
[32]; [47]
  residual activity: 4.6%
[33]; [47]
  residual activity: 0%
[34]; [47]
  residual activity: 80%
[35]; [47]
  residual activity: 93%
[36]; [47]
  residual activity: 100%
[37]; [47]
  residual activity: 51%
[38]; [47]
  residual activity: 72%
[39]; [47]
  residual activity: 100%
[40]; [47]
  residual activity: 92%
[41]; [47]
  residual activity: 80%
[42]; [47]
  residual activity: 46%
[43]; [47]
  residual activity: 72%
[44]; [47]
  residual activity: 100%
[45]; [47]
  residual activity: 93%
